Measured values from patent publication US8710068B2, “Method of treating cancer using a survivin inhibitor” (The Trustees Of The University Of Pennsylvania, priority 2009, dated 2014).

Tests used:
Survivin protein = target: T1, Survivin protein (Homo sapiens, UniProt O15392); experiment: Isothermal titration calorimetry (ITC) binding to native Survivin; conditions: ITC, in words
T1 construct: made in house; host or cells: bacteria
Experimental: FIG. 5 illustrates an analysis of S12-Survivin binding with isothermal titration calorimetry (ITC). Single-site point mutagenesis was performed to create the Survivin mutants F86A and V89Y. The native and the mutant proteins were produced and purified from bacteria.
FIG. 16 illustrates the isothermal titration calorimetry profile of the binding of SBDO3 to the Survivin homodimer.
In order to examine the specificity of the binding, we generated point mutations on the Survivin protein at the site presumably targeted by S12. The two mutations were substitutions of phenylalanine 86 with alanine (F86A) and valine 89 with tyrosine (V89Y). These two altered sites are also adjacent to the interface involved in dimerization of the Survivin protein. Based on structural analyses, we predict that alterations of either of these two amino acid residues may abolish the binding of S12 without affecting the overall structure of the Survivin protein.
We tested the binding of the Survivin target molecules to Survivin by isothermal titration calorimetry.

SKBR3 breast cancer cell = experiment: MTT tumor cell proliferation assay, SKBR3; format: cell-based, human; conditions: SKBR3, 48 hours
Experimental: (§1) FIG. 3 illustrates the effect of S2 and its analogs on tumor cell proliferation. Cells were treated with DMSO or Survivin targeting molecules at the indicated concentration for 48 hours. The percentage of viable cells was evaluated by MTT assay. (A) AsPC1; (B) HeLa; (C) SKBR3; (D) DAOY.
(§2) FIG. 18 illustrates the effect of SBDO3, SN2, or SDC1 on tumor cell proliferation. (A) AsPC1 cells were treated with DMSO or the Survivin targeting molecules SBDO3 or SN2 at the indicated concentration for 48 hours. (B) SKBR3 cells were treated with DMSO or SDC1 for 48 hours. The percentage of viable cells was evaluated by MTT assay.
(§3) S2 and its analogs (S10, S11, S12, and S13) were tested for the ability to inhibit tumor cell proliferation by MTT assay. The AsPC1 pancreatic cancer cells were treated with DMSO, a control molecule SC2, or the Survivin-targeting compounds at the concentration of 5, 10, 20, or 50 μg/ml for 48 hours. The number of viable cells was evaluated by MTT.
(§4) SBDO3, SN2 and SDC1 were tested for the ability to inhibit tumor cell proliferation by MTT assay. The AsPC1 pancreatic cancer cells were treated with DMSO or the Survivin-targeting compounds at the concentration of 5, 10, 20, or 50 μg/ml for 48 hours. The number of viable cells was evaluated by MTT.

[1] = system: AsPC1 pancreatic cancer cells; experiment: MTT tumor cell proliferation assay, AsPC1; format: cell-based, human; conditions: AsPC1, 5, 10, 20, or 50 μg/ml for 48 hours
Experimental: as §1, §2, §3, §4

HeLa cells [2] = experiment: Cell cycle analysis of DNA content by PI staining and FACS, HeLa; format: cell-based, human; conditions: for block of cells in mitosis: FACS analysis and immunofluorescence studies; for accumulation of cells in the G2/M stage: HeLa, 15 hours, FACS DNA content
Experimental: FIG. 7 illustrates the effect of S2 or S12 on cell cycle progression. HeLa cells were treated with S2, S12, S10, S1 (control compound), or DMSO (control), propidium iodide (PI) staining and FACS analysis were performed to quantify the DNA content of cells.
FIG. 9 illustrates the effect of S12 on mitosis. (A) HeLa cells were treated with S12, S2 or DMSO for 15 hours. The cells were then fixed and subjected to immunostaining using antibodies specific for Aurora B (green) and Survivin (red). DNA was stained with DAPI. Chromosome misalignment is indicated with the arrowheads. (B) Percentage of S12-treated cells in mitosis, in metaphase, in anaphase/telophase, or with misaligned chromosomes. (C) Percentage of S2-treated cells in mitosis, in metaphase, in anaphase/telophase, or with misaligned chromosomes. (D) HeLa cells were treated with S12 (10 μg/ml) or DMSO (control) for 15 hours. Cells were examined by PI staining of DNA content by FACS analysis.
FIG. 17 illustrates (A) FACS analysis of DNA content of HeLa cells treated with SBDO3. Note the accumulation of cells at the G2/M stage. Cell death was also observed (sub-G1 population); (B) Immuno-fluorescence microscopy analysis of cell treated with SBDO3. Note that the microtubule bundles of the mitotic spindle are disorganized. The chromosomes are not aligned properly and cells cannot go through metaphase.
The candidate Survivin-targeting molecules identified by the virtual screen were examined for the ability to inhibit cell proliferation and mitosis. HeLa cells were treated with the compounds at various concentrations for 15 hours followed by examination of the DNA content by FACS analysis. […] The effects of S2 inflicted on cell proliferation and viability are consistent with the anticipated outcome caused by the ablation of Survivin functions. We have extended these studies to test a number of molecules that are structurally similar to S2, including S10, S11, S12 and S13. […] S12 affected cell proliferation and viability, consistent with the anticipated outcome caused by ablation of Survivin functions.
We analyzed distribution of cells in the different stages of the cell cycle by FACS. […] In addition, the inhibitory effect of SBDO3 is dose dependent (FIG. 17A).
We also conducted immuno-fluorescence studies on SBDO3 treated HeLa cells.

HeLa cells [3] = experiment: BrdU incorporation DNA synthesis assay (FACS), HeLa; format: cell-based, human; conditions: 4 hours treatment then one-hour BrdU
Experimental: BrdU-labeled cells were analyzed by FACS. The percentage of BrdU-positive cells is indicated.
HeLa cells were treated with S12, aphidicolin, or DMSO (control) for 4 hours. BrdU was then added to the medium followed by an additional incubation of 1 hour. The amount of BrdU was examined by staining with anti-BrdU antibody and FACS analysis. The percentage of BrdU-positive cells is shown.
To establish the specificity of the biological activities of the Survivin targeting we examined whether the compounds affect DNA synthesis. HeLa cells were treated with Aphidicolin, S2 or DMSO for 4 hours, followed by one-hour incubation with BrdU. The cells were then collected, fixed and stained with FITC-labeled anti-BrdU antibody.

T1 sequence (O15392 whole entry): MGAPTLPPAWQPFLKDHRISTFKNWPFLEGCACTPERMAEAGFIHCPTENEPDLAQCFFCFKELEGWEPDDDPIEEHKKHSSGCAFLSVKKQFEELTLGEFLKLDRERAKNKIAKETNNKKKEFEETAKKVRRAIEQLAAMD

O=C(O)c1ccccc1C(=O)c1ccc(Sc2ccccc2)c([N+](=O)[O-])c1 [SDC1]
binding to the Survivin protein (Survivin protein): can bind to the Survivin protein
inhibition of proliferation (SKBR3 breast cancer cell): can inhibit proliferation
inhibition of cell proliferation / cell viability [1]: can inhibit cell proliferation and reduce cell viability in a dose-dependent manner
block of cells in mitosis (HeLa cells [2]): can also block cells in mitosis

O=C(CC1(O)C(=O)Nc2ccccc21)c1ccccc1 (stereo not shown) [S13]
inhibition of cell proliferation / cell viability [1]: can inhibit cell proliferation and reduce cell viability in a dose-dependent manner
accumulation of cells in the G2/M stage (HeLa cells [2]): exhibit the ability to arrest the cells at the G2/M stage

C[C@@]1(CO)[C@H](O)CC[C@@]2(C)[C@H]1CC[C@H]1C[C@@H]3C[C@@]12CC[C@]3(O)CO [aphidicolin, reference compound]
DNA synthesis (BrdU incorporation) (HeLa cells [3]): inhibits DNA replication

COc1ccc(C2C(C#N)=C(N)OC3=C2C(=O)CC(C)(C)C3)cc1OCc1ccccc1 (stereo not shown) [SN2]
inhibition of cell proliferation / cell viability [1]: can inhibit cell proliferation and reduce cell viability in a dose-dependent manner
block of cells in mitosis (HeLa cells [2]): can also block cells in mitosis

O=C(CC1(O)C(=O)Nc2ccc(Br)cc21)c1cccc([N+](=O)[O-])c1 (stereo not shown) [S11]
inhibition of cell proliferation / cell viability [1]: can inhibit cell proliferation and reduce cell viability in a dose-dependent manner
accumulation of cells in the G2/M stage (HeLa cells [2]): exhibit the ability to arrest the cells at the G2/M stage

O=C(CC1(O)C(=O)Nc2ccc(Br)cc21)c1ccc(F)cc1 (stereo not shown) [S10]
inhibition of cell proliferation / cell viability [1]: can inhibit cell proliferation and reduce cell viability in a dose-dependent manner
accumulation of cells in the G2/M stage (HeLa cells [2]): exhibit the ability to arrest the cells at the G2/M stage
